Test results taken from publication PMC4971072, “Chemically Homogenous Compounds with Antagonistic Properties at All α1-Adrenoceptor Subtypes but not β1-Adrenoceptor Attenuate Adrenaline-Induced Arrhythmia in Rats” (Frontiers in Pharmacology, 2016).
Marks after values point to notes of the source that are not given here.

Columns and labels:
α1D-adrenoreceptors = biological target: T1, α1D-adrenoreceptors (Rattus norvegicus, UniProt P23944); assay: Functional bioassay, isolated rat aorta, noradrenaline contraction; assay type: biochemical; design: had aorta removed, denuded of endothelium and incubated in the Krebs-Henseleit solution; from tissue; host or cells: isolated rat aorta rings; details: noradrenaline as agonist
T1 sequence (P23944 1-561): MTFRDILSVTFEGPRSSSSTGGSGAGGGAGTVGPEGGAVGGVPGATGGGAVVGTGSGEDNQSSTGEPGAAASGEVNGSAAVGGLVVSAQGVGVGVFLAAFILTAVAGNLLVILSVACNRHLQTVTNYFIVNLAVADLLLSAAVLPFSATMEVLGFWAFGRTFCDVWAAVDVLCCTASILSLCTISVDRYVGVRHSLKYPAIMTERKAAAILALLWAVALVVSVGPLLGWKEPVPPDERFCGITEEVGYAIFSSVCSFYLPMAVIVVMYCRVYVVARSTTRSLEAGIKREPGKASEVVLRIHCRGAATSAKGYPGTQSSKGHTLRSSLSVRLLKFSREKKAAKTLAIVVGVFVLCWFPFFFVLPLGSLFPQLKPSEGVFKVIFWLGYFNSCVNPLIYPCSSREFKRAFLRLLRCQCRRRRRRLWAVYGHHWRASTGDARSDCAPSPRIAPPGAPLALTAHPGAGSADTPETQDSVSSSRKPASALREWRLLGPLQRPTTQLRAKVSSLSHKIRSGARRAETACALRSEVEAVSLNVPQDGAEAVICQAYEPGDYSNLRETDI
Protocol: Finally, the influence on α1D-adrenoreceptors was investigated using the isolated rat aorta. […] The aorta rings were maintained at optimal tension of 2.0 g. During 3 h of equilibration tissues were stimulated with noradrenaline three times (0.3 μM). Two cumulative concentration-response curves to noradrenaline, at an interval of 60 min, were established on each tissue both in the presence and absence of antagonist. The incubation with antagonists went on for 30 min. The experiments were carried out in the constant presence of yohimbine (0.1 μM) and propranolol (1 μM) to block α2- and β-adrenoceptors, respectively.
Data are means ± S.E.M. of at least 4 separate experiments. To establish Hill slopes for the agonist concentration–response curves and calculate EC50 values, curves were fitted to all the data by non-linear regression. The EC50 value in the presence and absence of antagonists was used to ascertain the concentration ratio (CR). Schild analysis was performed.

[1] = tested on: blood pressure in normotensive rats; assay: Influence on blood pressure in normotensive rats; assay type: in vivo, rat; design: Systolic pressure / Diastolic pressure: unit not given beside the values; details: for Diastolic pressure / Systolic pressure: anesthetized normotensive rats
Protocol: The tested compounds were administered i.p. after 15 min of stabilization period. The compounds were administered at the dose 10 mg/kg.

[2] = tested on: adrenaline-induced arrhythmia in rats; assay: Prophylactic antiarrhythmic activity in adrenaline-induced arrhythmia; assay type: in vivo, rat
Protocol: The studied compounds were administered i.p. 45 min before the injection of adrenaline, calcium chloride, or barium chloride. The electrocardiogram (ECG) was recorded during the first 2 min as well as in the 5th, 10th, and 15th min after the arrhythmogen injection. […]

normal ECG in rats = assay: The effect on normal electrocardiogram in rats; assay type: in vivo, rat; details: anesthetized rats, i.p. at ED84
Protocol: The experiment was carried out to exclude the influence of tested compounds on normal ECG. […] The influence on QRS complex, PQ interval, heart rate (RR), and QTc interval was determined.

[3] = lowest hypotensive dose i.p., 5 min
[4] = lowest hypotensive dose i.p., 10 min
[5] = lowest hypotensive dose i.p., 20 min
[6] = lowest hypotensive dose i.p., 30 min
[7] = lowest hypotensive dose i.p., 40 min
[8] = lowest hypotensive dose i.p., 50 min
[9] = lowest hypotensive dose i.p., 60 min
[10] = lowest hypotensive dose i.p., Control (before administration)
[11] = normotensive rats, lowest hypotensive dose i.p., period of significant effect
[12] = dose 2.5 mg/kg i.p. 45 min before adrenaline 20 μg/kg i.v.
[13] = dose 5 mg/kg i.p. 45 min before adrenaline 20 μg/kg i.v.
[14] = dose 10 mg/kg i.p. 45 min before adrenaline 20 μg/kg i.v.

COc1ccccc1N1CCN(CCOCCOc2c(C)cccc2C)CC1.Cl [HBK-14, 1-[(2,6-dimethylphenoxy)ethoxyethyl]-4-(2-methoxyphenyl)piperazine hydrochloride]
Schild slope ± S.E.M., α1D (α1D-adrenoreceptors): 1.09 ± 0.10 | Kb (α1D-adrenoreceptors; read-out: pA2 ± S.E.M., α1D (converted)): 1.38 nM | Diastolic pressure [1, 3]: 105.2 ± 6.1 | Systolic pressure [1, 3]: 135.2 ± 7.3 | Diastolic pressure [1, 4]: 103.0 ± 5.8 | Systolic pressure [1, 4]: 131.2 ± 6.8^c | Diastolic pressure [1, 5]: 97.3 ± 6.0^c | Systolic pressure [1, 5]: 127.3 ± 6.6^c | Diastolic pressure [1, 6]: 95.2 ± 6.1^c | Systolic pressure [1, 6]: 125.3 ± 7.0^c | Diastolic pressure [1, 7]: 92.3 ± 6.2^c | Systolic pressure [1, 7]: 124.2 ± 7.0^c | Diastolic pressure [1, 8]: 94.0 ± 5.8^c | Systolic pressure [1, 8]: 127.3 ± 6.3^c | Diastolic pressure [1, 9]: 98.0 ± 5.1^c | Systolic pressure [1, 9]: 128.2 ± 5.4^c | Diastolic pressure [1, 10]: 106.7 ± 4.3 | Systolic pressure [1, 10]: 138.3 ± 6.8 | lowest hypotensive dose ([1]; normotensive rats, lowest dose significantly lowering systolic and diastolic blood pressure): 0.625 mg/kg | reduction of diastolic blood pressure [1, 11]: 9−14% | reduction of systolic blood pressure [1, 11]: 5−10% | ED50 ([2]; Rattus norvegicus, read-out: ED50 (confidence limits)): 3.88 mg/kg | Bigeminy (%) [2, 12]: 50.0% | Blocks (%) [2, 12]: 83.3% | Bradycardia (%) [2, 12]: 83.3% | Extrasystoles (%) [2, 12]: 100.0% | Bigeminy (%) [2, 13]: 33.3% | Blocks (%) [2, 13]: 33.3% | Bradycardia (%) [2, 13]: 50.0% | Extrasystoles (%) [2, 13]: 50.0% | Bigeminy (%) [2, 14]: 16.7% | Blocks (%) [2, 14]: 33.3% | Bradycardia (%) [2, 14]: 50.0% | Extrasystoles (%) [2, 14]: 16.7% | influence on ECG parameters (PQ interval, QRS complex, QTc interval) (normal ECG in rats): did not influence the ECG parameters | Beats/min (ECG) (normal ECG in rats; 0 min (initial values)): 366.0 ± 10.8 Beats/min | PQ (ECG) (normal ECG in rats; 0 min (initial values)): 47.1 ± 1.1 ms | QRS (ECG) (normal ECG in rats; 0 min (initial values)): 26.1 ± 0.7 ms | QT (ECG) (normal ECG in rats; 0 min (initial values)): 85.8 ± 1.3 ms | QTc (ECG, Bazett) (normal ECG in rats; 0 min (initial values)): 211.7 ± 3.2 ms | Beats/min (ECG) (normal ECG in rats; 5 min): 369.8 ± 10.0 Beats/min | PQ (ECG) (normal ECG in rats; 5 min): 46.0 ± 1.0 ms | QRS (ECG) (normal ECG in rats; 5 min): 25.8 ± 0.5 ms | QT (ECG) (normal ECG in rats; 5 min): 85.0 ± 4.1 ms | QTc (ECG, Bazett) (normal ECG in rats; 5 min): 209.2 ± 8.3 ms | Beats/min (ECG) (normal ECG in rats; 10 min): 367.0 ± 9.9 Beats/min | PQ (ECG) (normal ECG in rats; 10 min): 46.3 ± 0.9 ms | QRS (ECG) (normal ECG in rats; 10 min): 27.6 ± 1.0 ms | QT (ECG) (normal ECG in rats; 10 min): 88.7 ± 1.9 ms | QTc (ECG, Bazett) (normal ECG in rats; 10 min): 214.8 ± 5.0 ms | Beats/min (ECG) (normal ECG in rats; 15 min): 359.8 ± 9.5 Beats/min | PQ (ECG) (normal ECG in rats; 15 min): 47.5 ± 1.3 ms | QRS (ECG) (normal ECG in rats; 15 min): 27.0 ± 0.6 ms | QT (ECG) (normal ECG in rats; 15 min): 89.0 ± 2.4 ms | QTc (ECG, Bazett) (normal ECG in rats; 15 min): 212.9 ± 5.7 ms | Beats/min (ECG) (normal ECG in rats; 20 min): 358.4 ± 11.4 Beats/min | PQ (ECG) (normal ECG in rats; 20 min): 46.3 ± 1.0 ms | QRS (ECG) (normal ECG in rats; 20 min): 26.3 ± 0.4 ms | QT (ECG) (normal ECG in rats; 20 min): 88.2 ± 2.9 ms | QTc (ECG, Bazett) (normal ECG in rats; 20 min): 212.5 ± 4.6 ms | Beats/min (ECG) (normal ECG in rats; 30 min): 359.8 ± 9.6 Beats/min | PQ (ECG) (normal ECG in rats; 30 min): 48.8 ± 1.9 ms | QRS (ECG) (normal ECG in rats; 30 min): 26.7 ± 0.9 ms | QT (ECG) (normal ECG in rats; 30 min): 89.6 ± 1.7 ms | QTc (ECG, Bazett) (normal ECG in rats; 30 min): 214.1 ± 5.0 ms | Beats/min (ECG) (normal ECG in rats; 40 min): 362.6 ± 11.9 Beats/min | PQ (ECG) (normal ECG in rats; 40 min): 48.2 ± 2.1 ms | QRS (ECG) (normal ECG in rats; 40 min): 26.1 ± 0.4 ms | QT (ECG) (normal ECG in rats; 40 min): 89.0 ± 2.1 ms | QTc (ECG, Bazett) (normal ECG in rats; 40 min): 214.1 ± 5.2 ms | Beats/min (ECG) (normal ECG in rats; 50 min): 361.6 ± 12.6 Beats/min | PQ (ECG) (normal ECG in rats; 50 min): 47.3 ± 1.6 ms | QRS (ECG) (normal ECG in rats; 50 min): 26.7 ± 1.0 ms | QT (ECG) (normal ECG in rats; 50 min): 87.9 ± 1.2 ms | QTc (ECG, Bazett) (normal ECG in rats; 50 min): 210.9 ± 5.1 ms | Beats/min (ECG) (normal ECG in rats; 60 min): 364.6 ± 11.2 Beats/min | PQ (ECG) (normal ECG in rats; 60 min): 48.4 ± 0.9 ms | QRS (ECG) (normal ECG in rats; 60 min): 27.5 ± 0.7 ms | QT (ECG) (normal ECG in rats; 60 min): 89.5 ± 2.4 ms | QTc (ECG, Bazett) (normal ECG in rats; 60 min): 214.1 ± 4.2 ms
